Source: US20070197599A1, “HYDROXYLAMINES AND DERIVATIVES AS ANTI-ANGIOGENIC AGENTS” (priority 2006, published 2007)
Like-named read-outs stand apart in the source and are kept apart here.

Tests used:
[1] = test system: H2O2-induced angiogenesis in the CAM model; test: H2O2-induced angiogenesis in the chick chorioallantoic membrane (CAM) model; assay type: in vivo; conditions: for inhibition at 88 µM: Gallus gallus
Description: Neovascularization was examined by previously described methods (see references at the end of Example 5). Ten-day-old fertilized chicken eggs were incubated at 37° C. with 55% relative humidity. In the dark with the help of candling lamp and using a hypodermic needle a small hole was punctured in the shell covering the air sac. A second hole was punctured on the wider side of the egg above an avascular area of the embryonic membrane. An artificial air sac was created below the second hole by applying gentle vacuum to the first hole using a small rubber squeeze bulb. The vacuum caused the separation of chorioallantoic membrane (CAM) from the shell. An approximately 1.0 cm^2 widow was cut in the shell over the dropped CAM with the use of a mini drill. The underlying CAM was accessed through this small window.
Filter disks were punched using a small puncher from filter paper #1 (Whatman International, United Kingdom). Filter disks were soaked in 3 mg/ml cortisone acetate solution (95% ethanol and water) and air-dried under sterile condition. For inducing angiogenesis, sterile filter disks were saturated with bFGF (1 μg/ml) or other pro-angiogenesis factors and control disks were saturated with PBS without Calcium and Magnesium.
Using sterile forceps one filter/CAM was placed from the window. The window was sealed with Highland brand transparent tape. After 24 hr, 10-25 µl of test agent (inhibitor) was injected intravenously or added topically into the CAM membrane of bFGF or other pro-angiogenesis factors stimulated CAMs. • Control filter disks received PBS without Calcium and Magnesium. • After 48 hr, CAM tissue directly beneath filter disk was harvested and placed in a 35-mm Petri dish. Eight-Ten eggs/treatment group was used.
A pro-angiogenic agent (see Examples, below) was added to induce new blood vessel branches on the CAM of 10-day old embryos. Sterile disks of #1 filter paper (Whatman International, United Kingdom) were pre-treated with 3 mg/ml cortisone acetate, and air dried under sterile conditions. The disks were then suspended in PBS (Phosphate Buffered Saline) and placed on growing CAMs. Filters treated with TPH (TEMPOL-H) or TEMPOL and/or H2O2 or TPH and/or bFGF or VEGF were placed on the first day of the 3-day incubation.
Digital Images and Microscopic analysis of CAM sections: CAM sections from Petri dish were examined using SV6 stereomicroscope (Karl Zeiss) at 50× magnification. Digital images were captured using a 3-CCD color video camera system (Toshiba America, New York, N.Y.). These images were analyzed using Image-Pro Plus software (Media Cybernetics). The number of branch points in blood vessels within the circular region superimposed to the area of a filter disk was counted for each section. After incubation at 37° C. with 55% relative humidity for 3 days, the CAM tissue directly beneath each filter disk was resected from control and treated CAM samples. Tissues were washed three times with PBS. Sections were placed in a 35-mm Petri dish (Nalge Nunc; Rochester, N.Y.) and were examined under a SV6 stereomicroscope (Karl Zeiss; Thornwood, N.Y.) at 50× magnification. Digital images of CAM sections adjacent to filters were collected using a 3-CCD color video camera system (Toshiba America; New York, N.Y.) and analyzed with the Image-Pro Plus software (Media Cybernetics; Silver Spring, Md.). The number of vessel branch points contained in a circular region equal to the area of a filter disk was counted for each section. Percent inhibition data are expressed as the quotient of the experimental value minus the negative control value divided by the difference between the positive control value and the negative control value. One image was counted in each CAM preparation, and findings from eight CAM preparations were analyzed for each treatment condition. In addition, each experiment was performed three times. […]

[2] = test system: selenite induced cataract; conditions: mice; cited from earlier work
[3] = test system: lens endothelial cells; conditions: in vitro; Sasaki et al., 1998; cited from earlier work
[4] = test system: mouse V79 cells; conditions: Mitchell et al., 2000; cited from earlier work

CC1(C)CC(O)CC(C)(C)N1[O] [TEMPOL, 4-hydroxy-2,2,6,6-tetramethylpiperidine-N-oxyl radical, reference compound]
inhibition of angiogenesis induced by super-maximal concentrations of H2O2 ([1]; CAM model, Tables 1A and 1B): effectively inhibited
inhibition at 88 µM ([1]; read-out: % Inhibition ± SD, H2O2 (88 μM, 30 ng) + 100 μg test agent): 32.1 ± 14.1%
inhibition at 88 µM ([1]; read-out: % Inhibition ± SD, H2O2 (88 μM, 30 ng) + 200 μg test agent): 32.5 ± 12.1%
inhibition at 88 µM ([1]; read-out: % Inhibition ± SD, H2O2 (88 μM, 30 ng) + 400 μg test agent): 30.1 ± 8.7%
inhibition at 88 µM ([1]; read-out: % Inhibition ± SD, H2O2 (88 μM, 30 ng) + 800 μg test agent): 60.9 ± 3.2%
prevention of selenite induced cataract [2]: not effective
prevention of X-ray radiation damage to lens endothelial cells [3]: prevented X-ray radiation damage
radioprotection of mouse V79 cells [4]: concentration dependent
